From PubChem BioAssay AID248 (DTP/NCI, 2004)
Several values for one entry are separate records, joined by “and”; a condition that tells them apart may be missing. Identical values can stand only once. Inconclusive results and toxic doses are left out. Cut-off read from the data, not from the text of the source: active = T/C of 150% or more; inactive = T/C below 125%.

Test system: L1210 leukemia ip in BDF1 mice, survival T/C
Experiment: NCI In Vivo Anticancer Drug Screen. Data for tumor model L1210 Leukemia (intraperitoneal) in B6D2F1 (BDF1) mice
Settings: endpoint: mean survival time, higher = longer survival
In short: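 Transplantable tumor model; survival measured in treated vs vehicle control mice. Value = treated/control.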

[1] = dose: 50.0 mg/kg/injection, schedule: Q01DX009 (ip), vehicle: saline with Tween-80
[2] = dose: 100.0 mg/kg/injection, schedule: Q04DX003 (ip), vehicle: saline with Tween-80
[3] = dose: 200.0 mg/kg/injection, schedule: Q01DX009 (ip), vehicle: saline with Tween-80
[4] = dose: 400.0 mg/kg/injection, schedule: Q01DX009 (ip), vehicle: saline with Tween-80
[5] = dose: 100.0 mg/kg/injection, schedule: Q01DX009 (ip), vehicle: saline with Tween-80
[6] = dose: 200.0 mg/kg/injection, schedule: Q04DX003 (ip), vehicle: saline with Tween-80
[7] = dose: 400.0 mg/kg/injection, schedule: Q04DX003 (ip), vehicle: saline with Tween-80
[8] = dose: 100.0 mg/kg/injection, schedule: Q04DX003 (ip), vehicle: saline

Measured: T/C

c1ccc2[nH]c(-c3cscn3)nc2c1
inactive: dose: 75.0 mg/kg/injection, schedule: Q04DX003 (ip), vehicle: saline 103 % of control | dose: 150.0 mg/kg/injection, schedule: Q04DX003 (ip), vehicle: saline 103 % of control | dose: 300.0 mg/kg/injection, schedule: Q04DX003 (ip), vehicle: saline 106 % of control

COc1cc(OC)c(NC(=O)Nc2cccc(Cl)c2C)cc1Cl
inactive: dose: 12.5 mg/kg/injection, schedule: Q01DX009 (ip), vehicle: saline with Tween-80 97 % of control and 92 % of control | dose: 25.0 mg/kg/injection, schedule: Q01DX009 (ip), vehicle: saline with Tween-80 94 % of control and 95 % of control | dose: 25.0 mg/kg/injection, schedule: Q04DX003 (ip), vehicle: saline with Tween-80 89 % of control | [1] 95 % of control and 87 % of control | dose: 50.0 mg/kg/injection, schedule: Q04DX003 (ip), vehicle: saline with Tween-80 97 % of control | dose: 100.0 mg/kg/injection, schedule: Q04DX002 (ip), vehicle: saline with Tween-80 86 % of control and 91 % of control | [2] 92 % of control | [3] 89 % of control and 91 % of control | dose: 200.0 mg/kg/injection, schedule: Q04DX002 (ip), vehicle: saline with Tween-80 87 % of control and 90 % of control | [4] 96 % of control and 91 % of control | dose: 400.0 mg/kg/injection, schedule: Q04DX002 (ip), vehicle: saline with Tween-80 104 % of control and 91 % of control

O=C(C[n+]1ccccc1Br)c1ccc2ccccc2c1
inactive: dose: 9.38 mg/kg/injection, schedule: Q01DX001 (ip), vehicle: other 104 % of control | dose: 18.75 mg/kg/injection, schedule: Q01DX001 (ip), vehicle: other 103 % of control | dose: 37.5 mg/kg/injection, schedule: Q01DX001 (ip), vehicle: other 103 % of control

CCCCSCc1nc2nc(Cl)c(Cl)nc2[nH]1
inactive: [1] 96 % of control | [5] 98 % of control and 92 % of control | [2] 100 % of control | [3] 112 % of control | [6] 98 % of control | [4] 95 % of control and 96 % of control | [7] 98 % of control

CC1(C)C(=O)NC(=O)C1(C)C
inactive: dose: 1.56 mg/kg/injection, schedule: Q03HX024 (ip), vehicle: saline 106 % of control | dose: 3.12 mg/kg/injection, schedule: Q03HX024 (ip), vehicle: saline 100 % of control | dose: 3.12 mg/kg/injection, schedule: Q04DX003 (ip), vehicle: saline 100 % of control | dose: 4.12 mg/kg/injection, schedule: Q01DX009 (ip), vehicle: saline 100 % of control | dose: 6.25 mg/kg/injection, schedule: Q01DX009 (ip), vehicle: saline 106 % of control | dose: 6.25 mg/kg/injection, schedule: Q03HX024 (ip), vehicle: saline 101 % of control | dose: 6.25 mg/kg/injection, schedule: Q04DX003 (ip), vehicle: saline 104 % of control | dose: 8.25 mg/kg/injection, schedule: Q01DX009 (ip), vehicle: saline 100 % of control | dose: 12.5 mg/kg/injection, schedule: Q01DX009 (ip), vehicle: saline 102 % of control | dose: 12.5 mg/kg/injection, schedule: Q03HX024 (ip), vehicle: saline 100 % of control | dose: 12.5 mg/kg/injection, schedule: Q04DX003 (ip), vehicle: saline 104 % of control and 108 % of control | dose: 16.5 mg/kg/injection, schedule: Q01DX009 (ip), vehicle: saline 92 % of control | dose: 18.75 mg/kg/injection, schedule: Q01DX001 (ip), vehicle: saline 105 % of control | dose: 25.0 mg/kg/injection, schedule: Q01DX009 (ip), vehicle: saline 106 % of control | dose: 25.0 mg/kg/injection, schedule: Q04DX003 (ip), vehicle: saline 102 % of control and 105 % of control | dose: 33.0 mg/kg/injection, schedule: Q01DX009 (ip), vehicle: saline 105 % of control | dose: 37.5 mg/kg/injection, schedule: Q01DX001 (ip), vehicle: saline 108 % of control | dose: 50.0 mg/kg/injection, schedule: Q01DX009 (ip), vehicle: saline 102 % of control | dose: 50.0 mg/kg/injection, schedule: Q04DX003 (ip), vehicle: saline 100 % of control and 102 % of control | dose: 66.0 mg/kg/injection, schedule: Q01DX009 (ip), vehicle: saline 90 % of control | dose: 75.0 mg/kg/injection, schedule: Q01DX001 (ip), vehicle: saline 108 % of control | [8] 94 % of control | dose: 150.0 mg/kg/injection, schedule: Q01DX001 (ip), vehicle: saline 103 % of control

C=[CH][Pb]([CH]=C)([O]C(=O)C(C)C)[O]C(=O)C(C)C
inactive: dose: 5.0 mg/kg/injection, schedule: Q04DX003 (ip), vehicle: saline 104 % of control | dose: 10.0 mg/kg/injection, schedule: Q04DX003 (ip), vehicle: saline 106 % of control | dose: 20.0 mg/kg/injection, schedule: Q04DX003 (ip), vehicle: saline 101 % of control

O=C(Nc1cccc2ccccc12)Oc1ccc2ccccc2c1
inactive: dose: 100.0 mg/kg/injection, schedule: Q04DX002 (ip), vehicle: Klucel (hydroxypropylcellulose) (HPC) 96 % of control | dose: 200.0 mg/kg/injection, schedule: Q04DX002 (ip), vehicle: Klucel (hydroxypropylcellulose) (HPC) 93 % of control | dose: 400.0 mg/kg/injection, schedule: Q04DX002 (ip), vehicle: Klucel (hydroxypropylcellulose) (HPC) 116 % of control

CCN(CC)c1cccc(O)c1
inactive: [2] 90 % of control | [6] 95 % of control

Cc1cc2c(C)c3nc4ccccc4c3c(C)c2c[nH]1
inactive: dose: 50.0 mg/kg/injection, schedule: Q01DX001 (ip), vehicle: saline 107 % of control | dose: 100.0 mg/kg/injection, schedule: Q01DX001 (ip), vehicle: saline 98 % of control | dose: 200.0 mg/kg/injection, schedule: Q01DX001 (ip), vehicle: saline 101 % of control | dose: 400.0 mg/kg/injection, schedule: Q01DX001 (ip), vehicle: saline 107 % of control | dose: 800.0 mg/kg/injection, schedule: Q01DX001 (ip), vehicle: saline 110 % of control | dose: 1600.0 mg/kg/injection, schedule: Q01DX001 (ip), vehicle: saline 118 % of control

CC(=O)OCC(C)(COC(C)=O)[N+](=O)[O-]
inactive: dose: 100.0 mg/kg/injection, schedule: Q04DX003 (ip), vehicle: Klucel (hydroxypropylcellulose) (HPC) 95 % of control | dose: 200.0 mg/kg/injection, schedule: Q04DX003 (ip), vehicle: Klucel (hydroxypropylcellulose) (HPC) 92 % of control | dose: 400.0 mg/kg/injection, schedule: Q04DX003 (ip), vehicle: Klucel (hydroxypropylcellulose) (HPC) 97 % of control

O=C(/C=N/O)Nc1cc(Cl)ccc1Cl
inactive: [5] 91 % of control | [2] 97 % of control | [3] 87 % of control | [6] 93 % of control | [4] 88 % of control | [7] 108 % of control

O=c1cc(Oc2ccc([N+](=O)[O-])cc2)[nH]c(=O)[nH]1
inactive: dose: 100.0 mg/kg/injection, schedule: Q01DX001 (ip), vehicle: Klucel (hydroxypropylcellulose) (HPC) 96 % of control | dose: 200.0 mg/kg/injection, schedule: Q01DX001 (ip), vehicle: Klucel (hydroxypropylcellulose) (HPC) 107 % of control

c1ccc2cc3nc4cc5ccccc5cc4nc3cc2c1
inactive: dose: 100.0 mg/kg/injection, schedule: Q01DX001 (ip), vehicle: acetone 95 % of control | [5] 93 % of control | dose: 200.0 mg/kg/injection, schedule: Q01DX001 (ip), vehicle: acetone 95 % of control | [3] 103 % of control | dose: 400.0 mg/kg/injection, schedule: Q01DX001 (ip), vehicle: acetone 92 % of control | [4] 87 % of control

COc1ccc(C(C)=O)c(OC)c1C
inactive: [8] 95 % of control | dose: 200.0 mg/kg/injection, schedule: Q04DX003 (ip), vehicle: saline 90 % of control | dose: 400.0 mg/kg/injection, schedule: Q04DX003 (ip), vehicle: saline 98 % of control

Nc1ncnc2c1nnn2CCCCCC(=O)O
inactive: [2] 100 % of control | [6] 101 % of control | [7] 97 % of control
